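The compound was tested at five concentrations on cells cultured in 96-well plates, with a 48-hour exposure period. At the TGI there is no net growth.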
How the values were obtained:
Experiment in all cases: growth of human tumour cells (NCI), 48 h
786-0 renal = tested on: 786-0 renal
A498 renal = tested on: A498 renal
A549 NSCLC = tested on: A549 NSCLC
ACHN renal = tested on: ACHN renal
CAKI-1 renal = tested on: CAKI-1 renal
CCRF-CEM leukemia = tested on: CCRF-CEM leukemia
COLO 205 colon = tested on: COLO 205 colon
DU-145 prostate = tested on: DU-145 prostate
EKVX NSCLC = tested on: EKVX NSCLC
HCC-2998 colon = tested on: HCC-2998 colon
HCT-116 colon = tested on: HCT-116 colon
HCT-15 colon = tested on: HCT-15 colon
HL-60(TB) leukemia = tested on: HL-60(TB) leukemia
HOP-62 NSCLC = tested on: HOP-62 NSCLC
HOP-92 NSCLC = tested on: HOP-92 NSCLC
HS 578T breast = tested on: HS 578T breast
HT29 colon = tested on: HT29 colon
IGROV1 ovarian = tested on: IGROV1 ovarian
K-562 leukemia = tested on: K-562 leukemia
KM12 colon = tested on: KM12 colon
LOX IMVI melanoma = tested on: LOX IMVI melanoma
M14 melanoma = tested on: M14 melanoma
MALME-3M melanoma = tested on: MALME-3M melanoma
MCF7 breast = tested on: MCF7 breast
MDA-MB-231 breast = tested on: MDA-MB-231 breast
MDA-MB-435 = tested on: MDA-MB-435
MDA-N = tested on: MDA-N
MOLT-4 leukemia = tested on: MOLT-4 leukemia
NCI-H226 lung = tested on: NCI-H226 lung
NCI-H23 lung = tested on: NCI-H23 lung
NCI-H522 lung = tested on: NCI-H522 lung
NCI/ADR-RES ovarian = tested on: NCI/ADR-RES ovarian
OVCAR-4 ovarian = tested on: OVCAR-4 ovarian
OVCAR-5 ovarian = tested on: OVCAR-5 ovarian
OVCAR-8 ovarian = tested on: OVCAR-8 ovarian
PC-3 prostate = tested on: PC-3 prostate
RPMI-8226 leukemia = tested on: RPMI-8226 leukemia
RXF 393 renal = tested on: RXF 393 renal
SF-268 CNS = tested on: SF-268 CNS
SF-295 CNS = tested on: SF-295 CNS
SF-539 CNS = tested on: SF-539 CNS
SK-MEL-2 melanoma = tested on: SK-MEL-2 melanoma
SK-MEL-28 melanoma = tested on: SK-MEL-28 melanoma
SK-MEL-5 melanoma = tested on: SK-MEL-5 melanoma
SK-OV-3 ovarian = tested on: SK-OV-3 ovarian
SN12C renal = tested on: SN12C renal
SNB-19 CNS = tested on: SNB-19 CNS
SNB-75 CNS = tested on: SNB-75 CNS
SR leukemia = tested on: SR leukemia
SW-620 colon = tested on: SW-620 colon
T-47D breast = tested on: T-47D breast
TK-10 renal = tested on: TK-10 renal
U251 CNS = tested on: U251 CNS
UACC-257 melanoma = tested on: UACC-257 melanoma
UACC-62 melanoma = tested on: UACC-62 melanoma
UO-31 renal = tested on: UO-31 renal

CN(C)/N=C1\CC(c2ccccc2)C(C#N)(C#N)C1(C#N)C#N (stereo unspecified)
TGI (786-0 renal): 42.3 µM | TGI (A498 renal): 33.8 µM | TGI (A549 NSCLC): > 100 µM | TGI (ACHN renal): 34.8 µM | TGI (CAKI-1 renal): 21.9 µM | TGI (CCRF-CEM leukemia): > 100 µM | TGI (COLO 205 colon): 22.1 µM | TGI (DU-145 prostate): 36.2 µM | TGI (EKVX NSCLC): > 100 µM | TGI (HCC-2998 colon): 33.1 µM | TGI (HCT-116 colon): 39.8 µM | TGI (HCT-15 colon): 30.1 µM | TGI (HL-60(TB) leukemia): > 100 µM | TGI (HOP-62 NSCLC): 59 µM | TGI (HOP-92 NSCLC): 29.7 µM | TGI (HS 578T breast): 75.1 µM | TGI (HT29 colon): 50.5 µM | TGI (IGROV1 ovarian): 45.3 µM | TGI (K-562 leukemia): > 100 µM | TGI (KM12 colon): > 100 µM | TGI (LOX IMVI melanoma): 79.2 µM | TGI (M14 melanoma): 34.3 µM | TGI (MALME-3M melanoma): 34.2 µM | TGI (MCF7 breast): > 100 µM | TGI (MDA-MB-231 breast): 36.9 µM | TGI (MDA-MB-435): 81.8 µM | TGI (MDA-N): 40 µM | TGI (MOLT-4 leukemia): 56.5 µM | TGI (NCI-H226 lung): 84.7 µM | TGI (NCI-H23 lung): 53.1 µM | TGI (NCI-H522 lung): 35.3 µM | TGI (NCI/ADR-RES ovarian): 72.1 µM | TGI (OVCAR-4 ovarian): > 100 µM | TGI (OVCAR-5 ovarian): 59.1 µM | TGI (OVCAR-8 ovarian): 41.9 µM | TGI (PC-3 prostate): 35.6 µM | TGI (RPMI-8226 leukemia): 47.2 µM | TGI (RXF 393 renal): 54.5 µM | TGI (SF-268 CNS): 35.6 µM | TGI (SF-295 CNS): 48.1 µM | TGI (SF-539 CNS): > 100 µM | TGI (SK-MEL-2 melanoma): 40 µM | TGI (SK-MEL-28 melanoma): 46 µM | TGI (SK-MEL-5 melanoma): 24.4 µM | TGI (SK-OV-3 ovarian): > 100 µM | TGI (SN12C renal): 36.9 µM | TGI (SNB-19 CNS): 54.1 µM | TGI (SNB-75 CNS): 33.9 µM | TGI (SR leukemia): > 100 µM | TGI (SW-620 colon): 36.2 µM | TGI (T-47D breast): 50.3 µM | TGI (TK-10 renal): 32.4 µM | TGI (U251 CNS): > 100 µM | TGI (UACC-257 melanoma): 34.3 µM | TGI (UACC-62 melanoma): 41.8 µM | TGI (UO-31 renal): 34.4 µM

— PubChem BioAssay (NCI)
